Measurements as given in patent US20240189258A1, “CANCER CELL GROWTH INHIBITING COMPOSITION AND PROCESSED FOOD” (HAGIHARA FARM PRODUCTION INSTITUTE CO., LTD., priority 2021, published 2024).

Tests used:
Jurkat cells = test: Growth inhibiting activity for human leukemia T cell line Jurkat cells (Cell Count Reagent SF, cell viability); type: cell-based; settings: 72 hours culture, cell viability by absorbance A450-A630
Description: <2. Evaluation of growth inhibiting activity of compounds for human leukemia T cell line Jurkat cells>
The cancer cell growth-inhibiting activity of each sample described above was examined using Jurkat cells, which are from a human leukemia T cell line.
In each well of a 96-well plate, 50 μL of a Jurkat cell suspension prepared at 1×10^5 cells/mL was seeded. A DMSO solution of the evaluation sample was diluted 500 times with the culture medium. Immediately after that, 50 μL of the diluted sample solution was added to the cells to start a cell treatment. After the samples were stirred for 30 seconds using a microplate reader, the cells were cultured in an incubator. After 72 hours, 10 μL of Cell Count Reagent SF was added to each well. After a color reaction was performed in the incubator for 2 to 3 hours, the absorbance at 450 nm and 630 nm was measured using a microplate reader. Cell viability was determined using the following formula (F1).
Cell viability (%)=[(As−Ab)/(Ac−Ab)]×100 (F1)
Note that As, Ab, and Ac are as follows. • As: absorbance of evaluation well • Ab: absorbance of negative control well • Ac: absorbance of control well
All the “absorbance” values in the above-described formula were calculated by subtracting the absorbance at 630 nm (referred to as A630) from the absorbance at 450 nm (referred to as A450) , that is, “A450-A630”. Further, IC50 was calculated by linear approximation on a logarithmic graph using two concentrations that most tightly enclose the 50% cell viability point.

IC50 (Jurkat cells; Homo sapiens)	melting point	IC50 (Jurkat cells)	Structure (SMILES)
2800 nM			C/C(=C\CN(C)C)CCC[C@H](C)CCC[C@H](C)CCCC(C)C (racemic) [PT21, (7RS,11RS,E)-1-N,N-dimethylamino-3,7,11,15-tetramethyl-2-hexadecene]
3100 nM			C/C(=C\CNC(C)(C)C)CCC[C@H](C)CCC[C@H](C)CCCC(C)C (racemic) [PT23, (7RS,11RS,E)-1-t-butylamino-3,7,11,15-tetramethyl-2-hexadecene]
1410 nM	199 to 201 °C		C/C(=C\C[N+](C)(C)C)CCC[C@H](C)CCC[C@H](C)CCCC(C)C.[Br-] (racemic) [PT26, (7RS,11RS,E)-N,N,N-trimethyl-3,7,11,15-tetramethyl-2-hexadecenaminium bromide]
3800 nM			C/C(=C\CN)CCC[C@H](C)CCC[C@H](C)CCCC(C)C (racemic) [rac-PT10, (7R,11R,E)-1-amino-3,7,11,15-tetramethyl-2-hexadecene, reference compound]
2600 nM			C/C(=C\CNC(C)C)CCC[C@H](C)CCC[C@H](C)CCCC(C)C (racemic) [PT22, (7RS,11RS,E)-1-isopropylamino-3,7,11,15-tetramethyl-2-hexadecene]
		29800 nM	C/C(=C\CO)CCC[C@H](C)CCC[C@H](C)CCCC(C)C (racemic) [rac-PTO, phytol, reference compound]
3200 nM	101 to 102 °C		C/C(=C\Cn1c(N)ccnc1=O)CCC[C@H](C)CCC[C@H](C)CCCC(C)C (racemic) [PT28, 6-amino-1-((7R,11R,E)-3,7,11,15-tetramethyl-2-hexadecenyl)pyrimidin-2(1H)-one]
480 nM	132 to 135 °C		CC[N+](CC)(CC)C/C=C(\C)CCC[C@H](C)CCC[C@H](C)CCCC(C)C.[Br-] (racemic) [PT27, (7RS,11RS,E)-N,N,N-triethyl-3,7,11,15-tetramethyl-2-hexadecenaminium bromide]
